Test: In-use stability test of FPD, commercial capsules in opened blister, 40° C. and 75% Rh
Format: physicochemical
Details: conclusion of tests S1-5 and HBS1-3
Protocol: (§1) From the blister holding 5 capsules one capsule was withdrawn and the remaining 4 capsules were put 4 days into 40° C. and 75% Rh. The blister containing the 4 capsules was then put in an exicator for 2 h before tests were performed. The test was performed with 4 kPa pressure drop over the […]® at room temperature and laboratory ambient conditions.
as §1, with “put 13” for “put 4”
as §1, with “put 21” for “put 4”

## C[N+]1(C)[C@@H]2C[C@@H](OC(=O)C(O)(c3cccs3)c3cccs3)C[C@H]1[C@@H]1O[C@@H]12 [tiotropium]
  Sensitivity of FPD to moisture: extremely sensitive to moisture

Source: US20090188496A1, “INHALABLE TIOTROPIUM AND CONTAINER THEREFOR” (Boehringer Ingelheim International GmbH, priority 2003, published 2009)
